# Laboratory results from paper PMC6198970, “Safety, efficacy, and dose response of the maturation inhibitor GSK3532795 (formerly known as BMS-955176) plus tenofovir/emtricitabine once daily in treatment-naive HIV-1-infected adults: Week 24 primary analysis from a randomized Phase IIb trial” (PLoS ONE, 2018).
# Where two headings read alike, the source gives them in different places.
# How the values were obtained:
# [1] = design: method as in Study AI468034; conditions: 120 mg MC tablet; ref Study AI468034; cited from earlier work
# [2] = 10 mg/kg/day; ref protocol Section 1.4.1.2; cited from earlier work
# [3] = cited from earlier work
# [4] = design: method as in Study AI468041; conditions: BMS-955176 80 mg SDD suspension with combined oral contraceptive; ref Study AI468041; cited from earlier work
# [5] = design: method as in AI468001 and AI468002; conditions: same doses and formulation; ref AI468001 and AI468002; listed as BMS-955176; cited from earlier work
# [6] = cited from earlier work; remark: listed apart in the source
# CYP1A2, CYP2B6, CYP3A4 = tested on: CYP1A2, CYP2B6, CYP3A4; design: method as in protocol Section 1.4.1.2; conditions: ref protocol Section 1.4.1.2; cited from earlier work
# HIV-1 protease = tested on: HIV-1 protease; design: method as in protocol Section 1.4.1.2; conditions: ref protocol Section 1.4.1.2; cited from earlier work
# [7] = ref protocol Section 1.4.1.2, cited from earlier work
# HIV-1 [8] = tested on: HIV-1; design: method as in protocol Section 1.4.1.2; conditions: with representative drugs from NRTI, NNRTI, PI, and INI classes; ref protocol Section 1.4.1.2; cited from earlier work
# [9] = ref protocol Section 1.4.1.2, cited from earlier work; remark: listed apart in the source
# cytochrome P450 (CYP)3A4 = tested on: cytochrome P450 (CYP)3A4; design: method as in protocol Section 1.4.1.2; conditions: ref protocol Section 1.4.1.2; cited from earlier work
# [10] = tested on: P gp, NTCP, OAT1, OAT3, MRP2, BSEP; design: method as in protocol Section 1.4.1.2; conditions: ref protocol Section 1.4.1.2; cited from earlier work
# HIV-1 [11] = conditions: 40% HS supplemented with additional human serum albumin; ref protocol Section 1.4.1.2; cited from earlier work
# [12] = Clinical laboratory evaluations; assay type: in vivo, HIV-1-infected adults
# Experimental: Physical examinations, measurement of vital signs, and clinical laboratory evaluations were performed at Weeks 4, 8, 12, 16 and 24, and participants were closely monitored for AEs and SAEs throughout. AEs were classified according to MedDRA version 19.0. The severity and relationship to study drug was assessed by the local investigator.
# [13] = design: method as in Study AI468049; conditions: 180 mg MC tablet, preliminary, ref Study AI468049, cited from earlier work
# CYP3A4 = tested on: CYP3A4; design: method as in protocol Section 1.4.1.2; conditions: ref protocol Section 1.4.1.2; cited from earlier work
# [14] = cited from earlier work; remark: listed apart in the source
# [15] = target: broad range of enzymes, transporters, and receptors, including cardiac ion channels; design: method as in protocol Section 1.4.1.2; conditions: ref protocol Section 1.4.1.2; read-out: IC50 or EC50 for in vitro off-target interactions; cited from earlier work
# CD4+ T-cell count = assay: Change from baseline in CD4+ T-cell count; assay type: in vivo, HIV-1-infected adults; conditions: Week 24
# Text: The primary endpoint was determination of the proportion of participants with plasma HIV-1 RNA <40 copies/mL at Week 24 after treatment with GSK3532795 or efavirenz (EFV). Secondary endpoints included mean changes from baseline in CD4+ T-cell count and mean changes in the percentage of CD4+ T-cell count over time. Secondary safety endpoints included frequency of adverse events (AEs), serious AEs (SAEs), and AEs leading to discontinuation through Week 24. Further secondary endpoints included emergence of drug resistance. Exploratory endpoints included assessment of the impact of Gag polymorphisms on the efficacy of GSK3532795. […] In addition, though Gag A364 is essentially invariant across genotypes, it was included in the primary endpoint analysis since emergent resistance to GSK3532795 (both in vitro and in Phase IIa studies) mapped, in part, to the A364V change. Thus, our analysis at the Week 24 primary endpoint was limited to these four positions. Pharmacokinetic (PK) analyses were performed to evaluate treatment exposure and assess the dose proportionality of GSK3532795 when co-administered with tenofovir disoproxil fumarate (TDF)/emtricitabine (FTC).
# [16] = design: method as in protocol Section 1.4.1.2; conditions: local lymph node assay in the mouse; ref protocol Section 1.4.1.2; cited from earlier work
# [17] = BMS-955176 40 mg SDD suspension and TDF at steady state; ref Study AI468005; cited from earlier work
# OCT2 = tested on: OCT2; design: method as in protocol Section 1.4.1.2; conditions: preliminary data; ref protocol Section 1.4.1.2; cited from earlier work
smiles,measurement,setting,value
C=C(C)[C@@H]1CC[C@]2(NCCN3CCS(=O)(=O)CC3)CC[C@]3(C)[C@H](CC[C@@H]4[C@@]5(C)CC=C(c6ccc(C(=O)O)cc6)C(C)(C)[C@@H]5CC[C@]43C)[C@@H]12 [GSK3532795],Bioavailability lower relative to 80 mg SDD suspension,[1],approximately 23%
same,Impact of high fat meal on Cmax,[1],negligible impact
same,Increase in C24 with a high fat meal relative to fasted,[1],approximately 70%
same,AUC at lowest dose with effects,[2],71 gh/mL
same,Blood pressure and electrocardiogram,"[3]; at 20 mg/kg, ref protocol Section 1.4.1.2",unaffected
same,No-observed-effect level (NOEL/NOAEL) for cardiovascular effects (heart rate),"[3]; dog, in vivo",2 mg/kg
same,Effect on exposures to ethinyl estradiol (EE) and norelgestromin (NGMN),[4],reduced
same,Exposures lower in HIV-1-infected subjects compared to healthy subjects,[5],35%
same,Increase in serum ALT activity,"[6]; 20 mg/kg/day, 1 female, ref protocol Section 1.4.1.2",2.10 × pretest
same,Loss of body weight,"[6]; 20 mg/kg/day, 2 females, ref protocol Section 1.4.1.2",up to 8%
same,NOAEL,"[6]; dog, in vivo",8 mg/kg/day
same,NOAEL dose (heart rate),"[6]; dog, in vivo",20 mg/kg/day
same,"Induction of CYP1A2, CYP2B6, or CYP3A4","CYP1A2, CYP2B6, CYP3A4",not an inducer
same,Direct inhibition of HIV-1 protease,HIV-1 protease,does not directly inhibit HIV-1 protease
same,AUC at NOAEL,[7]; 1 mg/kg/day,64.9 gh/mL
same,AUC at lowest dose with effects,[7]; 3 mg/kg/day,135 gh/mL
same,NOAEL,"[7]; dog 9-month, stomach histologic changes",1 mg/kg/day
same,Effect of 2-drug combinations,HIV-1 [8],additive to synergistic effects
same,Developmental toxicity classification,"[9]; mice, no maternal toxicity at any dose",selective developmental toxicant
same,Developmental NOAEL,[9]; mouse EFD,45 mg/kg/day
same,Cumulative postimplantation losses,"[9]; printed dose 100 mg/kg/day, […] in control litters",11.5%
same,Reductions in fetal body weight relative to control values,[9],5%
same,Metabolism in human in vitro systems,cytochrome P450 (CYP)3A4,primarily mediated via cytochrome P450 (CYP)3A4
same,"Inhibition of P gp, NTCP, OAT1, OAT3, MRP2, and BSEP",[10],not an inhibitor
same,Reduction of antiviral activity,HIV-1 [11],approximately 4 fold
same,Grade 3 low potassium,[12]; 60 mg arm,one participant
same,"Mean total cholesterol, direction of change","[12]; 120 mg arm, baseline to Week 24",decreased
same,Grade 3 laboratory abnormalities in triglycerides and creatinine clearance (CrCl),[12]; 180 mg arm,one participant each
same,Grade 3 liver chemistry abnormalities,[12]; GSK3532795 arms,three participants
same,Mean decrease in triglyceride levels,"[12]; range across all GSK3532795 arms, baseline to Week 24",5.0 to 12.9 mg/dL
same,Increase in Cmax relative to fasted,[13]; all three meal types,approximately 2 fold
same,Increase in AUC relative to fasted,[13]; high fat meal,2.5 fold
same,Increase in AUC relative to fasted,[13]; standard meal,2.1 fold
same,IC50,CYP3A4,32 µM
same,Safety in Phase 1,"[14]; SAD 10-120 mg, MAD 10-80 mg QD for 14-28 days, ref Study AI468001","No SAEs, deaths, or discontinuations related to study drug occurred"
same,Half life (T-HALF),"[14]; healthy subjects, ref Study AI468001",approximately 35 hours
same,Increase in BMS-955176 AUC(TAU),"[14]; multiple dose with daily 400 mg ATV and a standard meal for 14 days, ref AI468001",~ 25%
same,Time to steady state,"[14]; multiple-dose once daily, ref Study AI468001",approximately 7 days
same,Increase in Cmax and AUC(INF) with dose,"[14]; single dose 10-120 mg, multiple dose 10-80 mg QD, ref Study AI468001",slightly less than dose-proportional
same,Increase in BMS-955176 AUC(INF),"[14]; single dose following two doses of 100 mg RTV, ref AI468001",~48%
same,IC50,[15],> 5 µM
same,Mean change in CD4+ T-cell count (SD),CD4+ T-cell count; 60 mg,94.3 (SD 175.00) cells/μL
same,Mean change in CD4+ T-cell count (SD),CD4+ T-cell count; 120 mg,79.7 (SD 199.46) cells/μL
same,Mean change in CD4+ T-cell count (SD),CD4+ T-cell count; 180 mg,92.5 (SD 144.04) cells/μL
same,Skin sensitization,[16],not a skin sensitizer
same,Impact of coadministration on exposures,[17],neither BMS-955176 nor TDF exposures were meaningfully impacted
same,Inhibition of OCT2,OCT2,does not inhibit OCT2
